From US11485736B2 (KSQ Therapeutics, Inc., priority 2018, dated 2022)
Where two headings read alike, the source gives them in different places.

Key:
[1] = ADME solubility determination at pH 2.0 and pH 7.4; type: physicochemical; settings: aqueous buffer, thermodynamic from solid, LC-MS/MS
Method in brief: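 Dried residues of 10 mM DMSO stocks were shaken in PBS pH 7.4 or pH 2.0 for 24 hours at 25° C. and 1,100 rpm. After centrifugation, supernatants were quantified by LC-MS/MS against a standard of known concentration, applying a dilution factor.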

[2] = Liver microsomal stability, human liver microsomes; type: in vitro ADME; settings: 1 μM compound, NADPH, read-out: t1/2 (min) in HLM
Method in brief: (§1)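 Compound (1 μM final) was incubated with prewarmed human or rat liver microsomes (1 mg/mL in 100 mM phosphate master mix) plus NADPH; aliquots at 0.5–30 minutes were quenched in cold acetonitrile and quantified by LC-MS/MS. Half-life came from the ln(% remaining) versus time slope, converted to CLint (μL/min/mg prot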

[3] = Liver microsomal stability, rat liver microsomes; type: in vitro ADME; settings: 1 μM compound, NADPH, read-out: t1/2 (min) in RLM
Method in brief: as §1

[4] = PBS pH 2.0, shaken at 25° C. for 24 hours, read-out: Solubility at pH 2.0
[5] = PBS pH 7.4, shaken at 25° C. for 24 hours, read-out: Solubility at pH 7.4

| solubility at 24 h [1, 4] [µM] | solubility at 24 h [1, 5] [µM] | half-life at 1 μM [2] [min] | half-life at 1 μM [3] [min] | solubility at 24 h ([1]; phosphate buffered saline, PBS pH 2.0, shaken at 25° C. for 24 hours, read-out: Solubility at pH 2.0) [µM] | solubility at 24 h ([1]; phosphate buffered saline, PBS pH 7.4, shaken at 25° C. for 24 hours, read-out: Solubility at pH 7.4) [µM] | Structure (SMILES) |
| --- | --- | --- | --- | --- | --- | --- |
| < 10 | < 10 | < 25 | < 25 | – | – | CCn1cc(C(F)(F)F)nc1-c1ccc(Cn2ncc3cnc(-c4c(C5CC5)cnn4CC)nc32)cc1 [Example 68] |
| > 10 | > 10 | < 25 | > 25 | – | – | COc1ncnc(C2CC2)c1-c1ncc2nc(C)n(Cc3ccc(-n4nc(C(F)(F)F)cc4C)cc3)c2n1 [Example 211] |
| < 10 | < 10 | > 25 | < 25 | – | – | CCS(=O)(=O)c1ccccc1-c1ncc2cnn(Cc3ccc(-c4nc(C(F)(F)F)cn4C)cc3)c2n1 [Example 7, 6-(2-(ethylsulfonyl)phenyl)-1-(4-(1-methyl-4-(trifluoromethyl)-1H-imidazol-2-yl)benzyl)-1H-pyrazolo[3,4-d]pyrimidine] |
| < 10 | < 10 | < 25 | < 25 | – | – | CCn1cc(C(F)(F)F)nc1-c1ccc(Cn2nc(SC)c3cnc(-c4c(OC)ncnc4C4CC4)nc32)cc1 [Example 190, 6-(4-cyclopropyl-6-methoxypyrimidin-5-yl)-1-(4-(1-ethyl-4-(trifluoromethyl)-1H-imidazol-2-yl)benzyl)-3-(methylthio)-1H-pyrazolo[3,4-d]pyrimidine] |
| < 10 | < 10 | < 25 | < 25 | – | – | CCn1cc(C(F)(F)F)nc1-c1ccc(Cn2ncc3cnc(-c4c(OC)cnn4C4CCC4)nc32)cc1 [Example 84] |
| > 10 | > 10 | < 25 | < 25 | – | – | CC(C)c1ccccc1-c1ncc2cnn(Cc3ccc(-c4nc(C(F)(F)F)cn4C4CN(C)C4)cc3)c2n1 [Example 152, 6-(2-Isopropylphenyl)-1-(4-(1-(1-methylazetidin-3-yl)-4-(trifluoromethyl)-1H-imidazol-2-yl)benzyl)-1H-pyrazolo[3,4-d]pyrimidine] |
| < 10 | < 10 | > 25 | > 25 | – | – | COc1ncnc(C2CC2)c1-c1ncc2cnn(Cc3ccc(-c4nc(C(F)(F)F)c(OC)n4C)cc3)c2n1 [Example 165] |
| < 10 | < 10 | > 25 | < 25 | – | – | CCn1cc(C(F)(F)F)nc1-c1ccc(Cn2ncc3c(OC)nc(-c4c(OC)ncnc4C4CC4)nc32)cc1 [Example 52] |
| < 10 | < 10 | < 25 | < 25 | – | – | CC(C)c1c(F)cccc1-c1ncc2cnn(Cc3ccc(-c4nc(C(F)(F)F)cn4C)cc3)c2n1 [Example 10, 6-(3-fluoro-2-isopropylphenyl)-1-(4-(1-methyl-4-(trifluoromethyl)-1H-imidazol-2-yl)benzyl)-1H-pyrazolo[3,4-d]pyrimidine] |
| < 10 | < 10 | > 25 | > 25 | – | – | COc1ncnc(C2CC2)c1-c1ncc2c(OC)nn([C@@H](C)c3ccc(-c4nc(C(F)(F)F)c(Br)n4C)cc3)c2n1 [Example 188, (S)-1-(1-(4-(5-bromo-1-methyl-4-(trifluoromethyl)-1H-imidazol-2-yl)phenyl)ethyl)-6-(4-cyclopropyl-6-methoxypyrimidin-5-yl)-3-methoxy-1H-pyrazolo[3,4-d]pyrimidine] |
| < 10 | < 10 | > 25 | > 25 | – | – | CCn1cc(C(F)(F)F)nc1-c1ccc([C@H](C)n2nc(OC)c3cnc(-c4c(OC)ncnc4C4CC4)nc32)cc1 [Example 180] |
| < 10 | < 10 | > 25 | > 25 | – | – | COc1ncnc(C2CC2)c1-c1ncc2cnn(Cc3ccc(-n4nc(C(F)F)cc4C)cc3)c2n1 [Example 50] |
| > 10 | > 10 | < 25 | < 25 | – | – | CC(C)c1ncccc1-c1ncc2cnn(Cc3ccc(-c4nc(C(F)(F)F)cn4C)cc3)c2n1 [Example 9, 6-(2-isopropylpyridin-3-yl)-1-(4-(1-methyl-4-(trifluoromethyl)-1H-imidazol-2-yl)benzyl)-1H-pyrazolo[3,4-d]pyrimidine] |
| < 10 | < 10 | > 25 | > 25 | – | – | COc1ncnc(C2(C)CC2)c1-c1ncc2cnn(Cc3ccc(-n4nc(C(F)(F)F)cc4OC)cc3)c2n1 [Example 106] |
| < 10 | < 10 | > 25 | > 25 | – | – | COc1ncnc(C2CC2)c1-c1ncc2cnn(Cc3ccc(-c4nc(C(F)(F)F)n(C)n4)cc3)c2n1 [Example 85] |
| > 10 | > 10 | < 25 | < 25 | – | – | COCCOc1ncnc(C)c1-c1ncc2cnn(Cc3ccc(-n4nc(C(F)(F)F)cc4C)cc3)c2n1 [Example 47] |
| < 10 | < 10 | < 25 | < 25 | – | – | CC(C)c1ccccc1-c1ncc2cnn(Cc3ccc(-c4nc(C(F)(F)F)cn4C)cc3)c2n1 [Example 1, 6-(2-isopropylphenyl)-1-(4-(1-methyl-4-(trifluoromethyl)-1H-imidazol-2-yl)benzyl)-1H-pyrazolo[3,4-d]pyrimidine] |
| < 10 | < 10 | > 25 | < 25 | – | – | COc1ncnc(C2CC2)c1-c1ncc2cnn(Cc3ccc(-n4nc(C#N)cc4OC)cc3)c2n1 [Example 70] |
| > 10 | > 10 | < 25 | < 25 | – | – | COc1ncnc(C2CC2)c1-c1ncc2ncn(Cc3ccc(-c4nc(C(F)(F)F)cn4C)cc3)c2n1 [Example 203] |
| > 10 | > 10 | > 25 | > 25 | – | – | CCc1nc2cnc(-c3c(OC)ncnc3C3CC3)nc2n1Cc1ccc(-c2nc(C(F)(F)F)cn2C(C)C)cc1 [Example 205, 2-(4-cyclopropyl-6-methoxypyrimidin-5-yl)-8-ethyl-9-(4-(1-isopropyl-4-(trifluoromethyl)-1H-imidazol-2-yl)benzyl)-9H-purine] |
| < 10 | < 10 | > 25 | < 25 | – | – | COc1ncnc(C2CC2)c1-c1ncc2cnn(Cc3ccc(-c4nc(C(F)(F)F)cn4C4CCC4)cc3)c2n1 [Example 144] |
| > 10 | > 10 | < 25 | < 25 | – | – | COc1nc(C)nc(C2CC2)c1-c1ncc2cnn(Cc3ccc(-c4nc(C(F)(F)F)cn4C)cc3)c2n1 [Example 133, 6-(4-Cyclopropyl-6-methoxy-2-methylpyrimidin-5-yl)-1-(4-(1-methyl-4-(trifluoromethyl)-1H-imidazol-2-yl)benzyl)-1H-pyrazolo[3,4-d]pyrimidine] |
| < 10 | < 10 | > 25 | > 25 | – | – | Cn1cc(C(F)(F)F)nc1-c1ccc(Cn2ncc3cnc(-c4c(OS(=O)(=O)C(F)(F)F)ncnc4C4CC4)nc32)cc1 [Example 160, 6-Cyclopropyl-5-(1-(4-(1-methyl-4-(trifluoromethyl)-1H-imidazol-2-yl)benzyl)-1H-pyrazolo[3,4-d]pyrimidin-6-yl)pyrimidin-4-yl trifluoromethanesulfonate] |
| < 10 | < 10 | > 25 | > 25 | – | – | CCOc1cc(C(F)(F)F)nn1-c1ccc(Cn2ncc3cnc(-c4c(OC)ncnc4C4CC4)nc32)cc1 [Example 76] |
| < 10 | < 10 | < 25 | < 25 | – | – | CCn1cc(C(F)(F)F)nc1-c1ccc(Cn2ncc3cnc(-c4c(OC(C)(C)C)ncnc4C4CC4)nc32)cc1 [Example 59] |
| < 10 | < 10 | > 25 | > 25 | – | – | COc1ncnc(C2CC2)c1-c1ncc2c(OC)nn(C(C)c3ccc(-c4nc(C(F)(F)F)cn4CCF)cc3)c2n1 (centres unmarked) [Example 177] |
| < 10 | < 10 | > 25 | > 25 | – | – | COc1ncnc(C2CC2)c1-c1ncc2cnn(Cc3ccc(-c4nc(C(F)(F)F)cn4C4CC4)cc3)c2n1 [Example 154, 1-(4-(1-Cyclopropyl-4-(trifluoromethyl)-1H-imidazol-2-yl)benzyl)-6-(4-cyclopropyl-6-methoxypyrimidin-5-yl)-1H-pyrazolo[3,4-d]pyrimidine] |
| – | – | < 25 | < 25 | < 10 | < 10 | Cc1ncnc(C(C)C)c1-c1ncc2cnn(Cc3ccc(-n4nc(C(F)(F)F)cc4C)cc3)c2n1 [Example 45] |
| > 10 | > 10 | > 25 | > 25 | – | – | COc1ncnc(C2CC2)c1-c1ncc2cnn(Cc3ccc(-c4nc(C(F)(F)F)cn4CC(F)F)cc3)c2n1 [Example 138] |
